The text below walks through data of ChEMBL document CHEMBL1201862, “PubChem BioAssay data set” (2004).

The structures appear in SMILES notation.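 Tested at 5 concentrations; 48 h exposure; 96-well plates; endpoints linearly interpolated, else capped at highest concentration. The concentration for 50% growth inhibition is given as GI50.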 The source made the active and inactive calls. Cut-off read from the data, not from the text of the source: active = GI50 up to about 1.1 µM and inactive = higher. A value given as a limit tells only on which side of the number the result lay.

Among the test systems are MCF7; NCI-H460; UACC-62; ACHN; NCI/ADR-RES; HCC 2998; HT-29; OVCAR-5; K562; SK-MEL-28; COLO 205; 786-0; RXF 393; A498; U-251; M14; T47D; SNB-75; SR.
Holding throughout (assay): inhibition of tumour cell growth, NCI panel, 48 h

`CCCC1(N2C(=O)c3ccc4c5c(ccc(c35)C2=O)N(C2(CCC)CCCCC2)C4=O)CCCCC1`: the GI50 in the test with MCF7, with NCI-H460, with UACC-62, with ACHN, in the test on NCI/ADR-RES and in the test with HCC 2998 was > 100 µM (inactive) in each case. Besides, the GI50 in the test with HT-29, in the test with OVCAR-5, in the test with K562, with SK-MEL-28, in the test on COLO 205 and in the test with 786-0 was > 100 µM (inactive) in each case. The GI50 with RXF 393, with A498, in the test on U-251, with M14 and with T47D was > 100 µM (inactive) each time.
Take `CCOC(=O)C1=C(C)OC2(O)C=CC(O)=C3C(=O)N(c4ccccc4)C(=O)C312` (configuration not stated): the GI50 with MCF7 was 29.6 µM (inactive); in the test on NCI-H460, > 100 µM (inactive); in the test on UACC-62 it was 29.9 µM (inactive); in the test on ACHN, 31.8 µM (inactive); in the test on NCI/ADR-RES, 42.2 µM (inactive); in the test on HCC 2998 it was 37.3 µM (inactive). Further, the GI50 with HT-29 is 29.3 µM (inactive); in the test on OVCAR-5, 58.5 µM (inactive); with K562, 32.7 µM (inactive); with SK-MEL-28 it was 22.5 µM (inactive); in the test with SNB-75 it was 41.8 µM (inactive); in the test on COLO 205, 43.1 µM (inactive). For the same molecule, the GI50 with 786-0 was 40.5 µM (inactive); in the test with RXF 393, 26.4 µM (inactive); in the test with U-251, 35.7 µM (inactive); in the test with M14, 50.5 µM (inactive); with T47D, 45.1 µM (inactive); with SR it was 18.9 µM (inactive).
Regarding `COc1cc([C@@H]2c3cc4c(cc3[C@@H](c3c(O)cc(O)c5c3O[C@H](c3ccc(O)c(O)c3)[C@@H](O)C5)[C@H]3COC(=O)[C@H]23)OCO4)cc(OC)c1OC`, the GI50 was 1.72 µM (inactive) in the test on MCF7; 1.87 µM (inactive) in the test with NCI-H460; 1.72 µM (inactive) in the test with UACC-62; 1.78 µM (inactive) in the test on ACHN; 46 µM (inactive) in the test with NCI/ADR-RES; 1.8 µM (inactive) in the test on HCC 2998. Further, the GI50 in the test with HT-29 was 25.5 µM (inactive); in the test on OVCAR-5 it was 27.2 µM (inactive); in the test on K562, 9.31 µM (inactive); in the test with SK-MEL-28, 48.4 µM (inactive); in the test on COLO 205, 22.7 µM (inactive); in the test on 786-0, 24 µM (inactive). Further, the GI50 was 1.71 µM (inactive) with RXF 393; 1.6 µM (inactive) in the test on A498; 1.69 µM (inactive) in the test on U-251; 25.1 µM (inactive) in the test with M14; 2.24 µM (inactive) in the test with T47D.
On to `O=c1oc2ccccc2c(Nc2ccc3c(c2)Sc2ccccc2O3)c1[N+](=O)[O-]`, for which the GI50 was 18.7 µM (inactive) in the test with MCF7; 17.3 µM (inactive) with NCI-H460; 14.1 µM (inactive) in the test on UACC-62; 19.6 µM (inactive) with ACHN; 26.9 µM (inactive) in the test on NCI/ADR-RES; 20.4 µM (inactive) with HCC 2998. For the same molecule, the GI50 in the test with HT-29 was 23.9 µM (inactive); in the test on OVCAR-5 it was 34.6 µM (inactive); in the test with K562, 20 µM (inactive); in the test with SK-MEL-28 it was 16.2 µM (inactive); in the test on SNB-75, 23.2 µM (inactive); in the test on COLO 205 it was 16.3 µM (inactive). The GI50 in the test on 786-0 was 22.7 µM (inactive); with RXF 393, 23.4 µM (inactive); in the test with U-251 it was 18.5 µM (inactive); in the test on M14, 27.4 µM (inactive); in the test with T47D, 20.8 µM (inactive); in the test with SR, 24.8 µM (inactive).
With `CC1(C)C2CCC1C(=O)[C@@]1(C=CC(=O)CC1)C2` (some centres not stated), the GI50 in the test with MCF7, in the test with NCI-H460, in the test with UACC-62, in the test with ACHN, in the test on NCI/ADR-RES and with HCC 2998 was > 100 µM (inactive) in each case. Besides, the GI50 was > 100 µM (inactive) with HT-29; > 100 µM (inactive) in the test on OVCAR-5; > 100 µM (inactive) in the test with K562; 43.1 µM (inactive) in the test with SK-MEL-28; 61.1 µM (inactive) in the test on SNB-75; > 100 µM (inactive) with COLO 205. Besides, the GI50 in the test with 786-0, in the test on RXF 393, in the test with U-251, in the test on M14, with T47D and in the test on SR was > 100 µM (inactive) each time.
In the case of `Cc1nn(C(=O)c2ccncc2)c2c1C(c1cccc([N+](=O)[O-])c1)SC(=N)N2` (configuration not stated), the GI50 in the test with MCF7, with NCI-H460, in the test with UACC-62, with ACHN, in the test on NCI/ADR-RES and in the test on HCC 2998 was > 10 µM (inactive) in each case. For the same molecule, the GI50 in the test on HT-29, in the test with OVCAR-5, with K562, with SK-MEL-28, in the test on SNB-75 and in the test on COLO 205 was > 10 µM (inactive) each time. For the same molecule, the GI50 in the test on 786-0, with RXF 393, in the test with U-251, in the test on M14, in the test on T47D and with SR was > 10 µM (inactive) in each case.
With `Nn1c(CCCCCCCCc2nnc(-c3c(O)ccc4ccccc34)n2N)nnc1-c1c(O)ccc2ccccc12`, the GI50 in the test with MCF7, in the test on NCI-H460, with UACC-62, in the test with ACHN, in the test on NCI/ADR-RES and in the test on HCC 2998 was > 100 µM (inactive) throughout. In addition, the GI50 with HT-29, in the test on OVCAR-5, in the test with SK-MEL-28, in the test on SNB-75, with COLO 205 and in the test with 786-0 was > 100 µM (inactive) each time. Besides, the GI50 with U-251, with M14, in the test with T47D and with SR was > 100 µM (inactive) throughout.
As for `Oc1ccccc1C1=NOC(c2ccc(C(F)(F)F)cc2)C1` (configuration not stated), the GI50 with MCF7 was 0.665 µM (active); in the test with NCI-H460, > 50 µM (inactive); in the test with UACC-62, > 50 µM (inactive); with ACHN it was > 50 µM (inactive); in the test on NCI/ADR-RES, > 50 µM (inactive); with HCC 2998, > 50 µM (inactive). Moreover, the GI50 in the test with HT-29, in the test on OVCAR-5, in the test on K562, in the test on SK-MEL-28, with SNB-75 and in the test with COLO 205 was > 50 µM (inactive) throughout. The GI50 in the test with 786-0 is > 50 µM (inactive); in the test on RXF 393, > 50 µM (inactive); with A498, > 50 µM (inactive); with U-251, > 50 µM (inactive); with M14, > 50 µM (inactive); in the test with T47D, 0.92 µM (active).
As for `CCOC(=O)c1cn(CC)c2ccc3c(c2c1=O)S(=O)(=O)C=C3`, the GI50 in the test on MCF7, in the test on NCI-H460, with UACC-62, in the test with ACHN, in the test with NCI/ADR-RES and in the test with HCC 2998 was > 100 µM (inactive) in each case. Further, the GI50 in the test with HT-29, in the test on OVCAR-5, in the test with K562, with SK-MEL-28, with SNB-75 and in the test with COLO 205 was > 100 µM (inactive) in each case. The GI50 in the test on 786-0 was > 100 µM (inactive); in the test on RXF 393, 47 µM (inactive); in the test on A498 it was > 100 µM (inactive); with U-251 it was > 100 µM (inactive); in the test on M14 it was > 100 µM (inactive); in the test with T47D it was > 100 µM (inactive).
For `CCOC(=O)C1=NOC2(C=C(Br)C(=O)C(Br)=C2)C1`, the GI50 in the test on MCF7 is 2.45 µM (inactive); in the test on NCI-H460, 6.55 µM (inactive); in the test with UACC-62, 3.7 µM (inactive); with ACHN, 0.923 µM (active); with NCI/ADR-RES, 2.97 µM (inactive); in the test on HCC 2998 it was 1.79 µM (inactive). Besides, the GI50 in the test with HT-29 was 1.97 µM (inactive); with OVCAR-5, 5.47 µM (inactive); in the test with K562, 1.37 µM (inactive); in the test with SK-MEL-28 it was 6.75 µM (inactive); with SNB-75 it was 16.9 µM (inactive); in the test with COLO 205 it was 0.991 µM (active). Further, the GI50 in the test on 786-0 is 0.659 µM (active); in the test on RXF 393, 1.59 µM (inactive); with A498 it was 20.1 µM (inactive); in the test on U-251 it was 9.93 µM (inactive); in the test on M14 it was 1.67 µM (inactive); in the test on T47D, 1.21 µM (inactive).
Turning to `COc1ccccc1N1CCN(S(=O)(=O)c2ccc(Cl)cc2)C1=N`, the GI50 was 52.2 µM (inactive) with MCF7; 33.4 µM (inactive) in the test with NCI-H460; 26.3 µM (inactive) in the test on UACC-62; 48.9 µM (inactive) in the test on ACHN; 61.2 µM (inactive) in the test on NCI/ADR-RES; 22.4 µM (inactive) with OVCAR-5. Besides, the GI50 in the test with K562 was 61.7 µM (inactive); in the test with SK-MEL-28 it was 75 µM (inactive); in the test on SNB-75, > 100 µM (inactive); in the test with COLO 205, 73.6 µM (inactive); with 786-0 it was 99.5 µM (inactive); in the test on RXF 393, > 100 µM (inactive). In addition, the GI50 in the test with A498 was > 100 µM (inactive); with U-251, 37.5 µM (inactive); in the test on M14, 26.2 µM (inactive); with T47D, 68.7 µM (inactive).
